Here are results for six compounds from patent US11150255B2, “Additive channels” (Emulate Inc., priority 2016, dated 2021).

Data set [1] concerns fibrin deposition on the endothelium. Briefly: Vessel-On-Chip blood perfusion, fibrin deposition by fluorescent fibrinogen imaging. It is filed as cell-based, human. The note with it: for fibrin deposition / fibrin signal intensity: TNF-α 50 ng/ml 6 hours endothelial pre-treatment or sCollagen 10 μg/ml in blood, vs blood alone; for fibrin deposition / fibrin clot formation: hu5C8 240 μg/ml, sCD40L 10 ng/ml, untreated endothelium, 60 μl/minute, vs untreated blood. The protocol: (§1) Briefly, human blood was drawn in citrate buffer and used within 4 hours. Platelets were stained using fluorescently labeled non-blocking antibodies for the platelet surface marker CD41 and low dosages of fluorescent fibrinogen were added in order to visualize fibrin deposition. Blood was re-calcified in order to re-establish the full coagulation potential, then introduced in the biomimetic vessel-on-chip from the main inlet (embodiments of inlets shown in FIG. 18A-1, FIG. 18A-2 and FIG. 19C). The outlet of the chip was connected to a pulling syringe pump with a system of tubing and connectors made of medical grade silicon that excludes any metal components or potential causes of platelet activation (FIG. 5A).
(§2) After 14 minutes of perfusion, the flow was interrupted and the chips were immediately imaged via fluorescence microscopy (FIG. 18C and FIG. 19D). In healthy conditions, endothelial cells will provide an antithrombotic surface where blood can flow smoothly, and indeed we detected minimal platelet adhesion or fibrin deposition in our vessel-on-chip after blood perfusion in control conditions, FIG. 18C, Blood.
When analyzing the formation of fibrin, […] of fluorescently labeled fibrinogen (Alexa 488, Invitrogen) was also added to the blood. While fluorescent fibrinogen was barely detected as a diffused fluorescence, fibrin deposition on inflamed cells and sparse clots was easily distinguished since fibrin formed filamentous structures produce a signal intensity that is clearly observed above a background threshold.
(§3) Chips perfused with blood samples were immediately imaged via fluorescence microscopy (Olympus IX83, 10× objective UPLFLN10×2, Orca-Flash4.0 CMOS Camera). Each chamber was inspected along its entire length and S images (about 0.25 cm) were captured from the central area of the chamber. Image processing and quantification was performed with an automatic macro compiled in ImageJ and numerical values corresponding to platelet coverage or fibrin florescence were collected and statistically analyzed in Graphpad Prism V7.
(§4) A percentage of signal coverage (or Platelet coverage) was computed from the binary image as the ratio of bright pixels to the total number of pixels in the image. Image processing and quantification was performed with an automatic macro compiled in ImageJ in order to ensure unbiased signal measurements. Numerical values corresponding to platelet coverage or fibrin fluorescence (signal intensity) were collected and statistically analyzed in Graphpad Prism V7.

The subject of a further data set is FcγRIIa. Briefly: Vessel-On-Chip thrombosis, all endpoints (platelet coverage, fibrin deposition, TAT). The note with it: for hu5C8-mediated thrombosis on-chip (platelet coverage, fibrin deposition, TAT): with sCD40L 10 ng/ml, IV.3 1 μg/ml pre-incubation or IgG2σ variant in place of hu5C8. It is filed as cell-based, human.
For data set [2], the system named is platelets in human whole blood over HUVEC endothelium. Briefly: Vessel-On-Chip blood perfusion, platelet coverage by fluorescence imaging. The format is cell-based. The settings on record: for platelet aggregation / platelet coverage: TNF-α 50 ng/ml 6 hours endothelial pre-treatment or sCollagen 10 μg/ml in blood, vs blood alone; for platelet aggregate formation / platelet coverage: hu5C8 240 μg/ml, sCD40L 10 ng/ml, untreated endothelium, 60 μl/minute, vs untreated blood. The protocol:
as §1, §2
Platelets were labeled with human CD41-PE antibody (10 μL/ml, Invitrogen) directly added to the blood and incubated at room temperature for 5 minutes.
A medical grade plastic reservoir was mounted on the chip, then 800 μl of the blood sample was pipetted into the reservoir. The chip was perfused with the blood by withdrawing it at a rate of 60 μl/minute using a syringe pump. The citrated blood was re-calcified 2 minutes after the beginning of each experiment by adding 100 μl/ml of a solution containing 100 mM calcium chloride and 75 mM magnesium chloride to the blood to permit calcium- and magnesium-dependent platelet function and coagulation.
as §3, §4

Data set [3] deals with thrombin anti-thrombin complex (TAT). Kind of data set: Thrombin anti-thrombin (TAT) ELISA in chip effluent plasma. The format is cell-based, human. The note with it: TNF-α endothelial pre-treatment or sCollagen in blood; outflow samples. Here is the method: Thrombin converts fibrinogen into fibrin during clot formation, and anti-thrombin plays a role in maintaining homeostasis by inhibiting the effect of thrombin. Formation of TAT in the microdevice confirms that local and intrinsic generation of thrombin, a potent platelet agonist, occurs in the model and that counter regulatory mechanisms for coagulation are retained. Thus, blood sampled from the Vessel-On-Chip was analyzed for thrombin anti-thrombin complex (TAT), an accepted clinical biomarker for procoagulation^48,49. […] An enzyme-linked immunosorbant assay (ELISA) was used to quantify the thrombin anti-thrombin complex (TAT).
Thrombin Anti-Thrombin (TAT) levels were analyzed in plasma from blood flowing out of the chip device by removing a sample from the outflow port. Thus TAT levels were evaluated in sample effluents collected from the outflow port of the chip using the Human TAT ELISA Kit (Siemens Healthineers) according to the user manual.
Blood sampled from the Vessel-On-Chip outflow port was analyzed for thrombin anti-thrombin complex (TAT), a factor released upon activation of the coagulation cascade and one of the biomarkers associated with thrombotic events occurring in patients affected with deep vein thrombosis (DVT) or SLE^45,46. […] An enzyme-linked immunosorbant assay (ELISA) was used to quantify the thrombin anti-thrombin complex (TAT).

For a further data set, the system named is patients. The settings on record: hu5C8: lupus nephritis study; IDEC-131: Crohn's disease trial; cited from earlier work.
The mark [4] stands for this setting: Eptifibatide 2 ug/ml, endothelium inflamed with TNF-α, n=4.

Entries after “also recorded” stand apart in the source; their conditions may differ. Positions of bridges follow the written chain, without caps; N, C: chain ends. Non-standard residues stand in square brackets, D forms with d. Residues, ends and D or L forms follow the SMILES beside them. hArg = N=C(N)NCCCC[C@H](N)C(=O)O; Mpa = O=C(O)CCS

For `N=C(N)NCCCC[C@@H]1NC(=O)CCSSC[C@@H](C(N)=O)NC(=O)[C@@H]2CCCN2C(=O)[C@H](Cc2c[nH]c3ccccc23)NC(=O)[C@H](CC(=O)O)NC(=O)CNC1=O` [Eptifibatide] ([Mpa][hArg]GDWPC-NH2; disulfide 1-7), the fibrin clot formation entry in data set [1] (setting [4]) is reported as “significantly inhibited”. For the same compound, the “fibrin signal (image analysis of multiple experiments)” value in data set [1] (Eptifibatide 2 ug/ml, samples treated with TNF-α, n=4) was “a significant amount of fibrin signal was still detectable”. The “fibrin deposition in stimulated, pro-thrombotic conditions” value in data set [1] (TNF-α or sCollagen, with Eptifibatide, FIG. 18E-2, n=4 donors) is on record as “suppressed”. The “thrombotic events recapitulated in the system” value with FcγRIIa (clinically relevant dosages of Eptifibatide) is listed as “inhibited”. In data set [2] (Eptifibatide 2 ug/ml, blood treated with sCollagen, n=4), the “inhibitory effect on platelet aggregation and fibrin clot formation” value was “comparatively modest”. Moreover, the platelet aggregation entry in data set [2] (setting [4]) was “significantly inhibited”. For the same compound, in data set [2] (Eptifibatide 2 ug/ml, n=4), the “platelet adhesion (image analysis of multiple experiments)” value is on record as “completely inhibited”. The “platelet coverage in stimulated, pro-thrombotic conditions” value in data set [2] (TNF-α or sCollagen, with Eptifibatide, FIG. 18E-1, n=4 donors) was “suppressed”.
Turning to TNF-α, the “fibrin deposition / fibrin signal intensity” value in data set [1] is “increased”. For the same compound, the “levels of TAT” value in data set [3] is “significantly increased; also recorded: elevated levels”. For the same compound, in data set [2], the “platelet aggregation / platelet coverage” value is “increased; also recorded: high number of larger aggregates”.
As to “hu5C8 (IgG2σ): IgG2σ variant of hu5C8 with an engineered Fc region that eliminates affinity for the FcγRIIa”, the “hu5C8-mediated thrombosis on-chip (platelet coverage, fibrin deposition, TAT)” value in the data set with FcγRIIa is “did not show signs of thrombosis”; in the data set on FcγRIIa (listed as IgG2σ), “suppressed”; with FcγRIIa (listed as hu5C8-IgG2σ), “not detected”.
For the compound “hu5C8: humanized monoclonal IgG1 antibody against CD40L, alternatively named anti-sCD40L or anti-CD154”, in data set [1], the “fibrin deposition / fibrin clot formation” value is recorded as “no significant treatment-related effects”. Moreover, in the data set with patients, the “incidence of thromboembolic events in clinical study” value is recorded as 2/18. Also, the “platelet aggregate formation / platelet coverage” value in data set [2] is “no significant treatment-related effects”.
Turning to sCD40L: Recombinant human sCD40 Ligand, the “fibrin deposition / fibrin clot formation” value in data set [1] was “no significant treatment-related effects”. In addition, the “platelet aggregate formation / platelet coverage” value in data set [2] is listed as “no significant treatment-related effects; also recorded: not statistically significant”. For the same compound, the “increase in platelet coverage in some donors, fold over untreated control” value in data set [2] (sCD40L alone) was “about 2 fold”.
With “sCollagen: soluble collagen (Soluble Calf Skin, Type I), a standard platelet activator”, the “fibrin deposition / fibrin signal intensity” value in data set [1] was “increased”. Further, the “levels of TAT” value in data set [3] is “minimally increased; also recorded: elevated levels”. Further, the “platelet aggregation / platelet coverage” value in data set [2] was “increased; also recorded: high number of larger aggregates”.
